Reference: EP0358154B1, “Novel cyclobutane derivative and process for producing same” (NIPPON KAYAKU KABUSHIKI KAISHA, priority 1988, dated 1990)
Values after ≈ are worked out from the molar mass of the structure shown. Where two headings read alike, the source gives them in different places.

Experiments:
[1] = test system: herpes simplex virus type 2 (HSV-2); test: HSV-2 infection in mice, survival (Experimental Example 6); assay type: in vivo, Balb/c mice; conditions: for Means survival time / Survivors/Total: once a day for 10 days, monitored 20 days
Experimental: Activity of the sample (compound No. 2) against herpes simplex virus type 2 (HSV-2) infection was examined in mice. Balb/c mice (6 week-old, male) were inoculated intraperitoneally (l.p.) with HSV-2 strain 186 at 4.8 x 10^5 PFU/0.2 ml per mouse. The sample was formulated in saline and applied either orally (p.o.) or i.p. at the indicated doses once a day for 10 days, starting 6 hrs after virus infection. The mortality was monitored for 20 days after inoculation. Efficacy of the sample was indicated as extension of survival time and number of survivors. Aciclovir (ACV: commercialized antiviral agent) was used as reference sample.

[2] = test system: simple Herpes 1 type virus (HSV-I); test: Plaque formation inhibition, HSV-I on Vero cell monolayer (Method 1); assay type: cell-based; conditions: read-out: IC50(µg/ml) HSV-1
Experimental: (§1) Antiviral activities against simple Herpes 1 type virus (HSV-I) and simple Herpes 2 type virus (HSV-II), both belonging to DNA virus, were examined by the following methods.
(§2) A 6-well multi-plate having a single layer of Vero cell (derived from the kidney cell of African Green-Monkey was infected with 100 to 150 PFU (plaque forming units) of virus. After adsorption at 37°C for one hour, a layer of agar medium (Eagle MEM medium containing 1.5% of agar) containing a varied concentration of sample was superposed thereon, and a cultivation was carried out at 37°C for 48 hours in 5% (v/v) carbon dioxide incubator. The formation of plaque was measured, from which 50% inhibitory value (IC50) was determined.

[3] = test system: simple Herpes 2 type virus (HSV-II); test: Plaque formation inhibition, HSV-II on Vero cell monolayer (Method 1); assay type: cell-based; conditions: read-out: IC50(µg/ml) HSV-2
Experimental: as §1, §2

[4] = test system: Human Immunodeficiency Virus (HIV); test: Anti-HIV activity in MT-4 cells, virus antigen by fluorescent antibody method (Method 4); assay type: cell-based; conditions: Human immunodeficiency virus 1, MT4, 96 h, read-out: IC50(µg/ml) HIV
Experimental: Antiviral activity against Human Immunodeficiency Virus (HIV) belonging to […] was examined by the following method.
MT-4 cell (about 50,000 cells/ml) was introduced into a 24-well tray, to which was added […] of a solution containing a predetermined quantity of sample compound. Culture was carried out at 37°C for 2 hours in 5% (v/v) carbon dioxide incubator. Then, 10^3 to 10^4 infection units of HIV was added and cultured for 4 days, after which a part of the culture fluid was applied onto a slide glass and immobilized with acetone and development of virus antigen was tested by fluorescent antibody method.
As the primary antibody of fluorescent antibody method, serum of AIDS patient was used. As the secondary antibody, […] was used.

[5] = test system: human Cytomegalovirus (HCMV); test: Anti-HCMV plaque formation inhibition on human embryonal fibroblast (Method 2); assay type: cell-based; conditions: read-out: IC50(µg/ml) HCMV
Experimental: Antiviral activity against human Cytomegalovirus (HCMV) belonging to DNA virus was examined by the following method.
Anti-HCMV activity was determined in the following manner. Thus, a 35 mm dish having a single layer of human embryonal fibroblast was infected with 100 PFU of HCMV (A0169 strain). After adsorption for one hour, one layer of a medium (0.5% agarose, 2% fetal calf serum) containing a varied concentration of sample compound was superposed thereon, and cultivation was carried out at 37°C for 10 days in 5% (v/v) carbon dioxide incubator. Then, formation of plaque was measured, from which 50% inhibitory value (IC50) was determined.

B hepatitis virus (HBV) = test: Anti-HBV activity in HB611 liver cells, HBV DNA by Southern method (Method 3); assay type: cell-based; conditions: read-out: IC50(µg/ml) HBV
Experimental: Antiviral activity against B hepatitis virus (HBV) belonging to DNA virus was examined by the following method.
According to the procedure of Dulbecco (Proc. Natl. Acad. Sci. USA, 84, 444 (1987)), cultured liver cell strain HB611 producing and releasing active B hepatitis virus was cultured in a modified Eagle medium (GIBCO) at 37°C at a CO2 concentration of 5% in the presence of 10% fetal calf serum, 200 micrograms/ml of G418, 100 µ/ml of Penicillin and 100 µ/ml of Streptomycin. The culture fluid was inoculated onto a 6-well plate at a rate of 5 x 10^4 cells/well (35 mm). One or two days after, 50% confluence was reached, when a predetermined quantity of sample compound was added and cultivation was continued. Thereafter, cultivation was continued for 15 days, while refreshing the medium with a fresh medium containing the same concentrations of the chemicals at intervals of 3 days. Then, the medium was removed, and the cell bodies were treated with 0.5 ml of Lysis buffer (10 mM Tris HCl, pH 7.8/5 mM Na2EDTA, 1% SDS/0.1 mg/ml […]) at 37°C for one hour and dissolved thereinto. The DNA thus obtained was purified by RNase treatment, phenolchloroform treatment and ethanol precipitation.
Then, 5 micrograms of DNA was subjected to Hind III treatment, and DNA pattern was analyzed according to Southern method by using ^32P-labelled B hepatitis virus DNA as a probe.

[6] = test system: human cervical cancer HeLa S3 cell; test: Growth inhibition of HeLa S3 cells, Methylene Blue dyeing (Method 5); assay type: cell-based; conditions: read-out: IC50(µg/ml) HeLaS3
Experimental: Carcinostatic activities on human cervical cancer HeLa S3 cell, mouse leukemia L1210 cell and […] cell were examined by the following methods. HeLa S3 cell was made into a suspension (7.5 x 10^3 cells/ml). The suspension was spread on a 96-well flat plate at a rate of 0.2 ml/well. After culturing it at 37°C for 24 hours in 5% carbon dioxide incubator, 10 microliters of a sample was added and cultivation was carried out for 72 hours. Then, culture fluid was taken out from each well and immobilized with methanol, after which 0.1 ml/well of 0.05% Methylene Blue/10 mM-Tris-HCl (pH 8.5) solution was added and dyeing was carried out at room temperature for 30 minutes. The dyed fluid in each well was withdrawn by means of aspirator and three times washed with pure water. Then, 3% HCl was added at a rate of 0.2 ml/well and the resulting mixture was sealed and allowed to stand at room temperature for about 24 hours, to extract pigment from the cells. Optical absorbance of each well at 660 nm was measured by means of […] Microplate Reader, from which growth inhibitory rate (%) at varied concentration was calculated according to the following equation. […] Growth inhibitory rate (%) = (1 - A1 /A0 ) x 100 [formula] wherein A1 = Absorbance in the treated group, A0 = Absorbance in the control group.

human leukemia P388 cell = test: Growth inhibition of P388 cells, cell counting (Method 6); assay type: cell-based; conditions: read-out: IC50(µg/ml) P388
Experimental: (§3) Carcinostatic activities on human cervical cancer HeLa S3 cell, mouse leukemia L1210 cell and […] cell were examined by the following methods. Cells of P388 and L1210 were spread onto a 24-well plate. After adding a sample, it was cultured at 37°C for 48 hours in 5% CO2 incubator. After the culture, the number of cells was counted by means of […]. The growth inhibitory rate in the treated group, based on that in the control group, was calculated from the following equation, from which 50% inhibitory concentration (CI50, micrograms/ml) was determined: The results obtained are as shown in Table 3. Growth inhibitory rate (%) = [1-(NT -NO )/NC -NO ] x 100 [formula] wherein NT = Cell number in treated group NO = cell number at the start of culture NC = Cell number in control group Table 3

[7] = test system: mouse leukemia L1210 cell; test: Growth inhibition of L1210 cells, cell counting (Method 6); assay type: cell-based; conditions: read-out: IC50(µg/ml) L1210
Experimental: as §3

`Nc1nc2c(ncn2COCCO)c(=O)[nH]1` [ACV, Aciclovir, reference compound] was tested, and the Means survival time ([1]; i.p., 12.5 mg/kg/day) was 11.1 days, the Survivors/Total ([1]; i.p., 12.5 mg/kg/day) was 1/10 and the Means survival time ([1]; i.p., 25 mg/kg/day) was 12.7 days. The Survivors/Total ([1]; i.p., 25 mg/kg/day) was 1/10, the Means survival time ([1]; i.p., 50 mg/kg/day) was 16.1 days and the Survivors/Total ([1]; i.p., 50 mg/kg/day) was 5/10. For the same molecule, the Means survival time ([1]; i.p., 100 mg/kg/day) was 5.4 days, the Survivors/Total ([1]; i.p., 100 mg/kg/day) was 2/10 and the Means survival time ([1]; p.o., 12.5 mg/kg/day) was 9.3 days. The Survivors/Total ([1]; p.o., 12.5 mg/kg/day) was 0/10, the Means survival time ([1]; p.o., 25 mg/kg/day) was 11.1 days and the Survivors/Total ([1]; p.o., 25 mg/kg/day) was 0/10. For the same molecule, the Means survival time ([1]; p.o., 50 mg/kg/day) was 14.8 days, the Survivors/Total ([1]; p.o., 50 mg/kg/day) was 4/10 and the Means survival time ([1]; p.o., 100 mg/kg/day) was 14.3 days. The Survivors/Total ([1]; p.o., 100 mg/kg/day) was 2/10.

`Nc1ncnc2c1ncn2[C@@H]1C[C@H](CO)[C@H]1CO` [Compound 1, 9-[(1R,2R,3S)-2,3-Bis(hydroxymethyl)cyclobutane-1-yl] -adenine] gave an IC50 ([2]; Human alphaherpesvirus 1, Vero cell, plaque formation, 48 hours) of 7.3 µg/mL (≈ 29.3 µM), an IC50 ([3]; Human alphaherpesvirus 2, Vero cell, plaque formation, 48 hours) of 8.9 µg/mL (≈ 35.7 µM) and an IC50 ([4]; MT-4 cell, cultured for 4 days, virus antigen) of 0.03 µg/mL (≈ 0.12 µM). It also gave an IC50 ([5]; Human betaherpesvirus 5, 240 h, human embryonal fibroblast, A0169 strain, plaque formation, 10 days) of 12 µg/mL (≈ 48.1 µM), an IC50 (B hepatitis virus (HBV); 360 h, HB611 cells, 15 days, HBV DNA) of 0.024 µg/mL (≈ 0.0963 µM) and an IC50 ([6]; HeLa S3, 72 hours, growth inhibition) of 14 µg/mL (≈ 56.2 µM). It also gave an IC50 (human leukemia P388 cell; P388, 48 hours, growth inhibition) of 0.58 µg/mL (≈ 2.33 µM) and an IC50 ([7]; L1210, 48 hours, growth inhibition) of 1.1 µg/mL (≈ 4.41 µM).

`Nc1nc2c(ncn2[C@@H]2C[C@H](CO)[C@H]2CO)c(=O)[nH]1` [Compound 2, 9-[(1R,2R,3S)-2,3-Bis(hydroxymethyl)cyclobutane-1-yl] -guanine] was tested, and the IC50 ([2]; Human alphaherpesvirus 1, Vero, 48 h) was 0.03 µg/mL (≈ 0.113 µM), the IC50 ([3]; Human alphaherpesvirus 2, Vero, 48 h) was 0.13 µg/mL (≈ 0.49 µM) and the IC50 [4] was 0.3 µg/mL (≈ 1.13 µM). The IC50 ([5]; Human betaherpesvirus 5, Fibroblast, 240 h) was 0.4 µg/mL (≈ 1.51 µM), the IC50 (B hepatitis virus (HBV); HB611, 360 h) was 0.86 µg/mL (≈ 3.24 µM) and the IC50 ([6]; HeLa S3, 72 h) was 19 µg/mL (≈ 71.6 µM). The IC50 (human leukemia P388 cell; P388, 48 h) was 1.6 µg/mL (≈ 6.03 µM), the IC50 ([7]; L1210, 48 h) was 8.1 µg/mL (≈ 30.5 µM) and the Means survival time ([1]; i.p., 1.25 mg/kg/day) was 19.8 days. For the same molecule, the Survivors/Total ([1]; i.p., 1.25 mg/kg/day) was 7/10, the Means survival time ([1]; i.p., 2.5 mg/kg/day) was 18.9 days and the Survivors/Total ([1]; i.p., 2.5 mg/kg/day) was 9/10. For the same molecule, the Means survival time ([1]; i.p., 5 mg/kg/day) was 20.0 days, the Survivors/Total ([1]; i.p., 5 mg/kg/day) was 10/10 and the Means survival time ([1]; i.p., 10 mg/kg/day) was 20.0 days. The Survivors/Total ([1]; i.p., 10 mg/kg/day) was 10/10, the Means survival time ([1]; i.p., 20 mg/kg/day) was 20.0 days and the Survivors/Total ([1]; i.p., 20 mg/kg/day) was 10/10. The “reducing mortality rate of mice infected with HSV-2” value ([1]; irrespective of administration routes (i.p., p.o.), 1.25 to 20 mg/kg per day) was “highly effective”, the Means survival time ([1]; p.o., 1.25 mg/kg/day) was 12.4 days and the Survivors/Total ([1]; p.o., 1.25 mg/kg/day) was 2/10. For the same molecule, the Means survival time ([1]; p.o., 2.5 mg/kg/day) was 14.7 days, the Survivors/Total ([1]; p.o., 2.5 mg/kg/day) was 4/10 and the Means survival time ([1]; p.o., 5 mg/kg/day) was 18.9 days. For the same molecule, the Survivors/Total ([1]; p.o., 5 mg/kg/day) was 8/10, the Means survival time ([1]; p.o., 10 mg/kg/day) was 19.8 days and the Survivors/Total ([1]; p.o., 10 mg/kg/day) was 9/10. The Means survival time ([1]; p.o., 20 mg/kg/day) was 19.7 days and the Survivors/Total ([1]; p.o., 20 mg/kg/day) was 9/10.
